Assays:
[1] = target: Serine/threonine-protein kinase SBK1 (Homo sapiens) (UniProt Q52WX2); details: Compound concentration 1000.0 nM
[2] = target: Homeodomain-interacting protein kinase 1 (Homo sapiens) (UniProt Q86Z02); details: Compound concentration 1000.0 nM
[3] = test system: Phosphatidylinositol 4,5-bisphosphate 3-kinase catalytic subunit alpha isoform (Homo sapiens), P42336 [M1043I]; details: Compound concentration 1000.0 nM
[4] = target: Serine/threonine-protein kinase 16 (Homo sapiens) (UniProt O75716); details: Compound concentration 1000.0 nM
Chain of Serine/threonine-protein kinase 16 (Homo sapiens) (O75716 whole entry): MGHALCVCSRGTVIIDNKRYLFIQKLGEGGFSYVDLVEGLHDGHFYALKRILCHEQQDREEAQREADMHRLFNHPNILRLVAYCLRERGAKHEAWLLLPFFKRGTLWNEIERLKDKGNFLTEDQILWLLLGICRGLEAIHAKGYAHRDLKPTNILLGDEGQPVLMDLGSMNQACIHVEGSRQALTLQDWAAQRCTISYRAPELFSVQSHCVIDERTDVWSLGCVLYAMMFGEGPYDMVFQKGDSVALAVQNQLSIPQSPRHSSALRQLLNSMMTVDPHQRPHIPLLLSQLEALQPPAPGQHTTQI

[5] = target: Serine/threonine-protein kinase D3 (Homo sapiens) (UniProt O94806); details: Compound concentration 1000.0 nM
[6] = target: Mitogen-activated protein kinase 1 (Homo sapiens) (UniProt P28482); details: Compound concentration 1000.0 nM
[7] = target: Serine/threonine-protein kinase VRK2 (Homo sapiens) (UniProt Q86Y07); details: Compound concentration 1000.0 nM
[8] = target: Non-receptor tyrosine-protein kinase TYK2 (Homo sapiens) (UniProt P29597); details: Compound concentration 1000.0 nM
Chain of Non-receptor tyrosine-protein kinase TYK2 (Homo sapiens) (P29597 whole entry): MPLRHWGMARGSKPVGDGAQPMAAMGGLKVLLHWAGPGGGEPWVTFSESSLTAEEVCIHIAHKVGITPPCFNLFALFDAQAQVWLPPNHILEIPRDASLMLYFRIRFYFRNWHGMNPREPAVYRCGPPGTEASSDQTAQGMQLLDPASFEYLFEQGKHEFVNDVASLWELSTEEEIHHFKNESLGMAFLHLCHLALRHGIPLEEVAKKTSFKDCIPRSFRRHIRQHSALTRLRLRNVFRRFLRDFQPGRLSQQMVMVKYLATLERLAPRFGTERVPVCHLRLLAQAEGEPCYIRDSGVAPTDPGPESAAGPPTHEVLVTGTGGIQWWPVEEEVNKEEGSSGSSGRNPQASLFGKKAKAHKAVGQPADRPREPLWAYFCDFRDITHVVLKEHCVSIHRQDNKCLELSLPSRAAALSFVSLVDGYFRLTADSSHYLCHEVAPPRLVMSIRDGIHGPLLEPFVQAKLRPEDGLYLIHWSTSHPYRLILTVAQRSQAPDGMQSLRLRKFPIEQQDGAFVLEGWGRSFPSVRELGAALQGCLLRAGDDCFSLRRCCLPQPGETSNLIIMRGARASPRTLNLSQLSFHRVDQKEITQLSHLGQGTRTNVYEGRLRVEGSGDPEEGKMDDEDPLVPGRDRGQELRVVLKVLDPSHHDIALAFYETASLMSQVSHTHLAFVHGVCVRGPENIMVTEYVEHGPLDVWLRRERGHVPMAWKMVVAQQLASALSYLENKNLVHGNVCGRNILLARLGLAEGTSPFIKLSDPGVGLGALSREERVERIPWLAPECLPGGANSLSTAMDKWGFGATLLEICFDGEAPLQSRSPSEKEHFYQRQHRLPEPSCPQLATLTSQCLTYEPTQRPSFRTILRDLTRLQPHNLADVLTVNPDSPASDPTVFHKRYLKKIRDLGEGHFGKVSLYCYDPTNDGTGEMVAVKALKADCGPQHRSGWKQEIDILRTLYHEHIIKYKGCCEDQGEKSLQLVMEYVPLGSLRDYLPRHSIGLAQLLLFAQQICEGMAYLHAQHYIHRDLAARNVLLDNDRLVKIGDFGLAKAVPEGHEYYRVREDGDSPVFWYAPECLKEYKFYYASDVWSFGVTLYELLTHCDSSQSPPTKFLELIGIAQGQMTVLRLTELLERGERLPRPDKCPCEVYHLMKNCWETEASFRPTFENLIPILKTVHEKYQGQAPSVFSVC

[9] = target: Proto-oncogene tyrosine-protein kinase receptor Ret (Homo sapiens) (UniProt P07949); details: Compound concentration 1000.0 nM
[10] = target: Activin receptor type-1B (Homo sapiens) (UniProt P36896); details: Compound concentration 1000.0 nM
[11] = target: Mitotic checkpoint serine/threonine-protein kinase BUB1 (Homo sapiens) (UniProt O43683); details: Compound concentration 1000.0 nM
[12] = target: Tyrosine-protein kinase Mer (Homo sapiens) (UniProt Q12866); details: Compound concentration 1000.0 nM
[13] = target: Casein kinase I isoform alpha (Homo sapiens) (UniProt P48729); details: Compound concentration 1000.0 nM
[14] = target: Serine/threonine-protein kinase OSR1 (Homo sapiens) (UniProt O95747); details: Compound concentration 1000.0 nM
[15] = target: Calcium/calmodulin-dependent protein kinase type II subunit alpha (Homo sapiens) (UniProt Q9UQM7); details: Compound concentration 1000.0 nM
[16] = target: Ribosomal protein S6 kinase beta-1 (Homo sapiens) (UniProt P23443); details: Compound concentration 1000.0 nM
[17] = target: Serine/threonine-protein kinase BRSK2 (Homo sapiens) (UniProt Q8IWQ3); details: Compound concentration 1000.0 nM
[18] = target: Death-associated protein kinase 1 (Homo sapiens) (UniProt P53355); details: Compound concentration 1000.0 nM
[19] = test system: Phosphatidylinositol 4,5-bisphosphate 3-kinase catalytic subunit alpha isoform (Homo sapiens), P42336 [E545A]; details: Compound concentration 1000.0 nM
[20] = target: Kappa-type opioid receptor (Homo sapiens) (UniProt P41145); details: Compound concentration 10.0 uM
[21] = target: Ephrin type-A receptor 1 (Homo sapiens) (UniProt P21709); details: Compound concentration 1000.0 nM
[22] = target: Phosphatidylinositol 4,5-bisphosphate 3-kinase catalytic subunit beta isoform (Homo sapiens) (UniProt P42338); details: Compound concentration 1000.0 nM
[23] = target: Tyrosine-protein kinase Lyn (Homo sapiens) (UniProt P07948); details: Compound concentration 1000.0 nM
[24] = target: Ribosomal protein S6 kinase alpha-6 (Homo sapiens) (UniProt Q9UK32); details: Compound concentration 1000.0 nM
[25] = target: MAP kinase-interacting serine/threonine-protein kinase 1 (Homo sapiens) (UniProt Q9BUB5); details: Compound concentration 1000.0 nM
Chain of MAP kinase-interacting serine/threonine-protein kinase 1 (Homo sapiens) (Q9BUB5 whole entry, looked up): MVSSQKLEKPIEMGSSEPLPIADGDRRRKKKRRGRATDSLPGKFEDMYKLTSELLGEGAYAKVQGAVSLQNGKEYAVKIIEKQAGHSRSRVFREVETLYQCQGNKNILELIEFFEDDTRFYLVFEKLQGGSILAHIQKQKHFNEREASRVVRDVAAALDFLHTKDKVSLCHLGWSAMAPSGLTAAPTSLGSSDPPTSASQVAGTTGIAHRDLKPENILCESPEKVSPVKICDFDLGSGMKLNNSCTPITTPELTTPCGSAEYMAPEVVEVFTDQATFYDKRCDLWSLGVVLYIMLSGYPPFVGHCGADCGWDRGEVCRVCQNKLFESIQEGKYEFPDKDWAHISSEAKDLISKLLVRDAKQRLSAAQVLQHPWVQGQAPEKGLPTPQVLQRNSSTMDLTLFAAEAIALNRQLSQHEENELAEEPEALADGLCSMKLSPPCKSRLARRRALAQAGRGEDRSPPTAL

[26] = target: MAP/microtubule affinity-regulating kinase 4 (Homo sapiens) (UniProt Q96L34); details: Compound concentration 1000.0 nM
[27] = test system: ALK tyrosine kinase receptor (Homo sapiens), Q9UM73 [L1196M]; details: Compound concentration 1000.0 nM
[28] = target: Serine/threonine-protein kinase TNNI3K (Homo sapiens) (UniProt Q59H18); details: Compound concentration 1000.0 nM
[29] = target: Tyrosine-protein kinase ABL1 (Homo sapiens) (UniProt P00519); details: Compound concentration 1000.0 nM
[30] = test system: Epidermal growth factor receptor (Homo sapiens), P00533 [UNDEFINED MUTATION]; details: Compound concentration 1000.0 nM
Chain of Epidermal growth factor receptor (Homo sapiens), P00533 [UNDEFINED MUTATION] (P00533 whole entry, looked up, change not shown): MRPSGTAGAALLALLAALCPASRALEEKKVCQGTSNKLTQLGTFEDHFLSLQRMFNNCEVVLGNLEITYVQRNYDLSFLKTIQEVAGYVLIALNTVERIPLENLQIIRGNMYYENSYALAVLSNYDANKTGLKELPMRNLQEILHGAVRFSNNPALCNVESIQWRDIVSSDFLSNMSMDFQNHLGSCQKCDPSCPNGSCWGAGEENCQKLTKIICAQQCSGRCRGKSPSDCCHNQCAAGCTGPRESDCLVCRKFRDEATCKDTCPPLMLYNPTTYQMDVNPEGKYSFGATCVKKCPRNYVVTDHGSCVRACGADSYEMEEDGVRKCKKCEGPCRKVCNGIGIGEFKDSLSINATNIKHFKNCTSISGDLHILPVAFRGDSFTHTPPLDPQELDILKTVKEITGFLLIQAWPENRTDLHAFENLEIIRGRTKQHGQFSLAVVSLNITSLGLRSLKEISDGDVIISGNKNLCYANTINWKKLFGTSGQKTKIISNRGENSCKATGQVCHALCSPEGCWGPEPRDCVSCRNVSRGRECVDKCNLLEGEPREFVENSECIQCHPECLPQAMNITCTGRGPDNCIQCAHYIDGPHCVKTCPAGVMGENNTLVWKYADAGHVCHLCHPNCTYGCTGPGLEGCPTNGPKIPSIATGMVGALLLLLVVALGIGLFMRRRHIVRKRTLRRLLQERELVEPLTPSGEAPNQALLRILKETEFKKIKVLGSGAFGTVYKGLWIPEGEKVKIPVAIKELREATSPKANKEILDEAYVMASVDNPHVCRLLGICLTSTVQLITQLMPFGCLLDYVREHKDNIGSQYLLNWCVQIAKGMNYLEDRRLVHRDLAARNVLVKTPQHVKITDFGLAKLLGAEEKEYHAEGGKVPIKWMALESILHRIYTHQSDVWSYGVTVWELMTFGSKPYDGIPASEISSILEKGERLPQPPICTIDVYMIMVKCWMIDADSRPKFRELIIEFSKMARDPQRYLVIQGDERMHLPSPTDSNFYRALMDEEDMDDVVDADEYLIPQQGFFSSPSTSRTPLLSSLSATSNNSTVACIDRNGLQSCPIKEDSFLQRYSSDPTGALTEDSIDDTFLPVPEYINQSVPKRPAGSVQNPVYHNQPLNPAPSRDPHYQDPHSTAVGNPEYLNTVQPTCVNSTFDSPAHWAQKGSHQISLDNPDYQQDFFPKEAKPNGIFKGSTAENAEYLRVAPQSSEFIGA

[31] = target: Ribosomal protein S6 kinase alpha-2 (Homo sapiens) (UniProt Q15349); details: Compound concentration 1000.0 nM
[32] = target: Calcium/calmodulin-dependent protein kinase type II subunit beta (Homo sapiens) (UniProt Q13554); details: Compound concentration 1000.0 nM
[33] = target: Ephrin type-A receptor 3 (Homo sapiens) (UniProt P29320); details: Compound concentration 1000.0 nM
[34] = target: Serine/threonine-protein kinase TBK1 (Homo sapiens) (UniProt Q9UHD2); details: Compound concentration 1000.0 nM
[35] = target: Ephrin type-A receptor 4 (Homo sapiens) (UniProt P54764); details: Compound concentration 1000.0 nM
[36] = target: Microtubule-associated serine/threonine-protein kinase 1 (Homo sapiens) (UniProt Q9Y2H9); details: Compound concentration 1000.0 nM
[37] = target: Ephrin type-B receptor 1 (Homo sapiens) (UniProt P54762); details: Compound concentration 1000.0 nM
[38] = target: Calcium/calmodulin-dependent protein kinase kinase 1 (Homo sapiens) (UniProt Q8N5S9); details: Compound concentration 1000.0 nM
[39] = target: Serine/threonine-protein kinase 32A (Homo sapiens) (UniProt Q8WU08); details: Compound concentration 1000.0 nM
[40] = target: Serine/threonine-protein kinase/endoribonuclease IRE1 (Homo sapiens) (UniProt O75460); details: Compound concentration 1000.0 nM
[41] = target: Serine/threonine-protein kinase 32B (Homo sapiens) (UniProt Q9NY57); details: Compound concentration 1000.0 nM
[42] = target: Sodium-dependent serotonin transporter (Homo sapiens) (UniProt P31645); details: Compound concentration 10.0 uM
[43] = target: 3-phosphoinositide-dependent protein kinase 1 (Homo sapiens) (UniProt O15530); details: Compound concentration 1000.0 nM
Chain of 3-phosphoinositide-dependent protein kinase 1 (Homo sapiens) (O15530 whole entry): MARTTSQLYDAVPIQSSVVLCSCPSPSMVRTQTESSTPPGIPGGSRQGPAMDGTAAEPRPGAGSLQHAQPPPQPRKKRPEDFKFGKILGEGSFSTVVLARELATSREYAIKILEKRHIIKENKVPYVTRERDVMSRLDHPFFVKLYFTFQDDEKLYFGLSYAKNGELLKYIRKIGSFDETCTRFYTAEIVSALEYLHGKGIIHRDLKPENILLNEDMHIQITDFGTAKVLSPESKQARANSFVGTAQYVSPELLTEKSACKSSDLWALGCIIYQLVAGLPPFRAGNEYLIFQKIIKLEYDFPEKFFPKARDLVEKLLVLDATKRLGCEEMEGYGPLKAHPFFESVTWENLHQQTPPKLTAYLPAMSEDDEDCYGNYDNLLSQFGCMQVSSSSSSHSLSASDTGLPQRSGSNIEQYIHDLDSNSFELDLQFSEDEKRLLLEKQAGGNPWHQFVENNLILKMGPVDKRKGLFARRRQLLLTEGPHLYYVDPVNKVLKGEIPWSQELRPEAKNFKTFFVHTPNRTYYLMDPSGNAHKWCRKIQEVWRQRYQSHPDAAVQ

[44] = target: Serine/threonine-protein kinase ULK1 (Homo sapiens) (UniProt O75385); details: Compound concentration 1000.0 nM

Chain of Homeodomain-interacting protein kinase 1 (Homo sapiens) (Q86Z02 whole entry, looked up, canonical isoform): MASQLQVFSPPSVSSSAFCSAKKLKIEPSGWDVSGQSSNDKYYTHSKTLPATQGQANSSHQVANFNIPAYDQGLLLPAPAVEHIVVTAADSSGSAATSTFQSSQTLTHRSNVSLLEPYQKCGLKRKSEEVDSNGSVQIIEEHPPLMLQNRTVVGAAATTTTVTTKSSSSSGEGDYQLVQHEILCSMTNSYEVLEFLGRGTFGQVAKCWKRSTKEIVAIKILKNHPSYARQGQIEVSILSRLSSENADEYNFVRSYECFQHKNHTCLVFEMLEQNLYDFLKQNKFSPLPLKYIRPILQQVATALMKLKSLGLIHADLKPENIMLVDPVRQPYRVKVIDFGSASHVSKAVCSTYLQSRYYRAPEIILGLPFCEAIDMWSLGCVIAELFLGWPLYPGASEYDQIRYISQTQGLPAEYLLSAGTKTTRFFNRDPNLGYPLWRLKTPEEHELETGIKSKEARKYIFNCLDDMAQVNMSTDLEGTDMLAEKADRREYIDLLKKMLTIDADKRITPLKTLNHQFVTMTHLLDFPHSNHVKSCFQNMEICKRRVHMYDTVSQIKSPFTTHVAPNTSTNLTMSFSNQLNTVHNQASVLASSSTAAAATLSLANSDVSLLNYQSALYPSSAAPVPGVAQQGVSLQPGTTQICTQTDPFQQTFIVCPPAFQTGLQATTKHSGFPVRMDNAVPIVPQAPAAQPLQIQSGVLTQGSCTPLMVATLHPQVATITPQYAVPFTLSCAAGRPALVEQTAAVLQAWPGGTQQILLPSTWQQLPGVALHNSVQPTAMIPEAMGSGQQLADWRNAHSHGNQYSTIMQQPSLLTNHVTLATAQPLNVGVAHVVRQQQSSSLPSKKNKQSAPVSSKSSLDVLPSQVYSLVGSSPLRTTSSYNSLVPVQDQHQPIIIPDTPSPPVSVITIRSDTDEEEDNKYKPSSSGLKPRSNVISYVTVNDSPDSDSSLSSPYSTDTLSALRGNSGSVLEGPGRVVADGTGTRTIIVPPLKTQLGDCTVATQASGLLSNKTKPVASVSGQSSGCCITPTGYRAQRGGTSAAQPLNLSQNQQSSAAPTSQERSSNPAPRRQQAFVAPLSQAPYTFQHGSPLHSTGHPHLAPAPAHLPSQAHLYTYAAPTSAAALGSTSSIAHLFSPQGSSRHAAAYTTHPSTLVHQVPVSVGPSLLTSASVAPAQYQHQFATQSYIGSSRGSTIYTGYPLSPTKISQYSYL

Work on `Nc1cnc(N2CCc3cc(S(=O)(=O)Nc4c(F)cc(Cl)cc4F)cc(N4CCCC4=O)c32)nc1` yielded a residual activity [1] of 83%, a residual activity [2] of 91% and a residual activity [3] of 100%. The residual activity [4] was 100%, the residual activity [5] was 88% and the residual activity [6] was 100%. The residual activity [7] was 100%, the residual activity [8] was 100% and the residual activity [9] was 89%. The residual activity [10] was 96%, the residual activity [11] was 100% and the residual activity [12] was 100%. For the same compound, the residual activity [13] was 100%, the residual activity [14] was 75% and the residual activity [15] was 92%. For the same compound, the residual activity [16] was 83%, the residual activity [17] was 80% and the residual activity [18] was 100%. The residual activity [19] was 100%, the inhibition [20] was 14.9% and the residual activity [21] was 99%. For the same compound, the residual activity [22] was 87%, the residual activity [23] was 88% and the residual activity [24] was 100%. For the same compound, the residual activity [25] was 98%, the residual activity [26] was 79% and the residual activity [27] was 81%. The residual activity [28] was 49%, the residual activity [29] was 100% and the residual activity [30] was 71%. The residual activity [31] was 100%, the residual activity [32] was 100% and the residual activity [33] was 78%. It also gave a residual activity [34] of 85%, a residual activity [35] of 100% and a residual activity [36] of 97%. For the same compound, the residual activity [37] was 92%, the residual activity [38] was 100% and the residual activity [39] was 80%. For the same compound, the residual activity [40] was 100%, the residual activity [41] was 74% and the inhibition [42] was 9.34%. The residual activity [43] was 98% and the residual activity [44] was 95%.
In the case of `Cn1nc(C(F)(F)F)cc1-c1cnc(N2CCc3cc(S(=O)(=O)Nc4c(F)cc(Cl)cc4F)cc(N4CCCC4=O)c32)nc1` [TP-020], the residual activity [1] is reported as 92%, the residual activity [2] is reported as 87% and the residual activity [3] is reported as 89%. It also gave a residual activity [4] of 92%, a residual activity [5] of 100% and a residual activity [6] of 100%. For the same compound, the residual activity [7] was 61%, the residual activity [8] was 90% and the residual activity [9] was 87%. It also gave a residual activity [10] of 96%, a residual activity [11] of 87% and a residual activity [12] of 100%. It also gave a residual activity [13] of 86%, a residual activity [14] of 99% and a residual activity [15] of 75%. The residual activity [16] was 78%, the residual activity [17] was 73% and the residual activity [18] was 96%. It also gave a residual activity [19] of 84%, an inhibition [20] of 14.6% and a residual activity [21] of 100%. The residual activity [22] was 85%, the residual activity [23] was 100% and the residual activity [24] was 84%. The residual activity [25] was 72%, the residual activity [26] was 88% and the residual activity [27] was 78%. For the same compound, the residual activity [28] was 65%, the residual activity [29] was 73% and the residual activity [30] was 100%. The residual activity [31] was 77%, the residual activity [32] was 92% and the residual activity [33] was 94%. The residual activity [34] was 95%, the residual activity [35] was 97% and the residual activity [36] was 100%. For the same compound, the residual activity [37] was 100%, the residual activity [38] was 98% and the residual activity [39] was 78%. For the same compound, the residual activity [40] was 92%, the residual activity [41] was 95% and the inhibition [42] was 0.95%. It also gave a residual activity [43] of 100% and a residual activity [44] of 79%.
